{"source": "patent US20120329761A1", "about": "“USE OF TIGECYCLINE FOR TREATMENT OF CANCER” (UNIVERSITY HEALTH NETWORK, priority 2010, published 2012)", "key": {"[1]": {"test_system": "normal hematopoietic cells", "test": "Methylcellulose colony formation assay", "type": "cell-based, human", "details": "5 μM, normal hematopoietic cells n=5, colonies at 14 days", "description": "(§1) FIG. 2. Tigecycline induces cell death and inhibits clonogenic growth in primary AML cells preferential over normal hematopoietic cells. Mononuclear cells from peripheral blood of leukemia patients (blast count >80%) and normal G-CSF expanded donors was treated with increasing concentrations of tigecycline for 48 hours. Cell viability was measured by Annexin-PI flow cytometry staining. Cell viability is expressed as a mean percentage plus or minus SD (n=3) relative to DMSO-treated cells. Mononuclear cells from primary AML patient samples (A, B) and normal peripheral blood cells (C) were plated in methylcelluose with 5 μM of Tigecycline. (D) Colony forming units were counted at 7 days (AML) and 14 days (Normal) post plating. […]\n(§2) To assess clonogenic growth, primary AML cells (1.0×10^5/mL) or granulocyte colony-stimulating factor (G-CSF) mobilized PBSCs (1.0×10^5/mL) were plated in duplicate with increasing concentrations of tigecycline in MethoCult GF H4434 medium (StemCell Technologies, Vancouver, BC) containing 1% methycellulose in IMDM, 30% FCS, 1% bovine serum albumin, 3 U/mL of recombinant human erythropoietin, 10^−4 M of 2-mercaptoethanol, 2 mM of L-glutamine, 50 ng/mL of recombinant human stem cell factor, 10 ng/mL of GM-CSF, and 10 ng/mL of rh IL-3). Seven days (AML samples) or 14 days (normal PBCS) after plating, the number of colonies was counted as previously described^31."}, "[2]": {"test_system": "primary AML patient samples", "test": "Methylcellulose colony formation assay", "type": "cell-based, human", "details": "5 μM, primary AML n=7, colonies at 7 days", "description": "as §1, §2"}, "[3]": {"test_system": "Cox-1, Cox-2, and Cox-4 mRNA", "test": "Quantitative RT-PCR of Cox mRNA", "type": "cell-based, human", "details": "TEX and primary AML cells, 2.5 μM and 5 μM", "description": "FIG. 4. […] (A) Cells from TEX, OCI-AML2 and two primary AML patients were treated with increasing concentrations (2.5 μM and 5 μM) of tigecycline for 36 and 48 hours of tigecycline. Total proteins were extracted and analyzed by western blotting for Cox-1, Cox-2, Cox-4, grp78, XIAP, actin and tubulin. (B) TEX and AML patient cells were treated with increasing concentrations (2.5 μM and 5 μM) of tigecycline. Cox-1, Cox-2, and Cox-4 mRNA expression relative 18S was determined by quantitative RT-PCR. Data is shown as mean±SD. (C) TEX cells were treated with increasing concentrations of tigecycline and chloramphenicol (CAP) for 72 hours. Complex I, II and IV enzyme activity relative to citrate synthase activity was determined as described in materials and methods. (D) Cells from TEX, primary AML patients, and normal donors were treated with increasing concentrations of tigecycline. Mitochondrial membrane potential (Δψ) was determined by staining cells with JC-1 dye, and flow cytometry analysis (Red/Green ratio). Reactive oxygen species generation (ROS) was determined by staining with h2-DCFDA and Dihydroethidium (DHE)."}, "[4]": {"test_system": "solid tumour cell lines", "test": "Cell growth and viability, MTS assay, 72 hours", "type": "cell-based", "description": "(§3) FIG. 1. […] (A) TEX and (B) M9-ENL1 cells were plated in 96-well plates and drugs were added to the wells (5 μL per well) for final concentrations of 10 μM (shown) and 1 μM. Cell growth and viability was measured at 48 hours (M9-ENL-1) and 72 hours (TEX) by MTS assay. Cell viability is shown for each compound as a percent of cells treated with DMSO alone. (C) Leukemia, (D) myeloma, and (E) solid tumor cell lines were seeded in 96-well plates and then treated with increasing concentrations of tigecycline. Cell growth and viability was measured at 72 hours by MTS assay. Cell viability is expressed as mean percentage plus or minus SD (n=3) relative to vehicle-treated cells. […] Cell viability was measured at 72 hours by MTS assay. Cell viability is expressed as mean percentage plus or minus SD (n=3) relative to vehicle-treated cells.\n(§4) Human leukemia (OCI-AML2, HL60, U937) cell lines were maintained in RPMI 1640 medium. Myeloma (LP-1, KMS11, 8226, JJN3, OP-M2) cell lines were maintained in Iscove's media. Ovarian (OVCAR), prostate (PC3), and lung alveolar (A549) cell lines were maintained in RPMI 1640 medium. Media was supplemented with 10% fetal calf serum (FCS), […] (all from Hyclone, Logan, Utah). TEX cells were maintained in IMDM, 15% FBS, 2 mM L-glutamine, 1%, penicillin-streptomycin, 20 ng/mL SCF, 2 ng/mL IL-3. M9-ENL1 cells were maintained in alpha-MEM, 20% FBS, 5% human plasma, 2 mM L-glutamine, 1%, penicillin-streptomycin, 100 ng/mL SCF, 10 ng/mL IL-3, 5 ng/mL IL-7, and 5 ng/mL FLT3L. All cells were incubated at 37° C. in a humidified air atmosphere supplemented with 5% CO2.\n(§5) Cell growth and viability was assessed by the MTS assay (Promega, Madison, Wis.) according to the manufacturer's instructions. Apoptosis and cell death was measured by Annexin V-fluoroscein isothiocyanate (FITC; Biovision Research Products, Mountain View, Calif.), propidium iodide staining and flow cytometry according to the manufacturer's instructions and as previously described^30."}, "[5]": {"test_system": "leukemia cell lines", "test": "Cell growth and viability, MTS assay, 72 hours", "type": "cell-based", "details": "tested leukemia cell lines", "description": "as §3, §4, §5"}, "[6]": {"test_system": "myeloma cell lines", "test": "Cell growth and viability, MTS assay, 72 hours", "type": "cell-based", "description": "as §3, §4, §5"}}}
{"smiles": "CN(C)c1cc(NC(=O)CNC(C)(C)C)c(O)c2c1C[C@H]1C[C@H]3[C@H](N(C)C)C(O)=C(C(N)=O)C(=O)[C@@]3(O)C(O)=C1C2=O", "note": "[tigecycline]", "values": [{"measurement": "reduction of clonogenic growth", "setting": "[1]", "value": "34±5", "unit": "%"}, {"measurement": "reduction of clonogenic growth", "setting": "[2]", "value": "93±4", "unit": "%"}, {"measurement": "Cox-1, Cox-2, Cox-4 mRNA expression relative 18S", "setting": "[3]", "value": "preferential increased mRNA expression of mitochondrial-encoded genes Cox-1, Cox-2, over the nuclear-encoded gene Cox-4"}, {"measurement": "IC50", "setting": "[4]", "value": "> 10", "unit": "µM"}, {"measurement": "IC50", "setting": "[5]", "value": "5 to 8", "unit": "µM"}, {"measurement": "IC50", "setting": "[6]", "value": "> 10", "unit": "µM"}]}
